Measured values published in patent publication US5171750A (priority 1991, dated 1992).
Where two headings read alike, the source gives them in different places.

Assays:
[1] = system: neuromuscular AChR; conditions: cited from earlier work
[2] = molecular target: plasma BChE (Homo sapiens, UniProt P06276); assay: biochemical
[3] = molecular target: human erythrocyte AChE (Homo sapiens, UniProt P22303); assay: biochemical; assay type: biochemical
Chain of human erythrocyte AChE (P22303-2 with tags, fused parts or gaps limits assumed): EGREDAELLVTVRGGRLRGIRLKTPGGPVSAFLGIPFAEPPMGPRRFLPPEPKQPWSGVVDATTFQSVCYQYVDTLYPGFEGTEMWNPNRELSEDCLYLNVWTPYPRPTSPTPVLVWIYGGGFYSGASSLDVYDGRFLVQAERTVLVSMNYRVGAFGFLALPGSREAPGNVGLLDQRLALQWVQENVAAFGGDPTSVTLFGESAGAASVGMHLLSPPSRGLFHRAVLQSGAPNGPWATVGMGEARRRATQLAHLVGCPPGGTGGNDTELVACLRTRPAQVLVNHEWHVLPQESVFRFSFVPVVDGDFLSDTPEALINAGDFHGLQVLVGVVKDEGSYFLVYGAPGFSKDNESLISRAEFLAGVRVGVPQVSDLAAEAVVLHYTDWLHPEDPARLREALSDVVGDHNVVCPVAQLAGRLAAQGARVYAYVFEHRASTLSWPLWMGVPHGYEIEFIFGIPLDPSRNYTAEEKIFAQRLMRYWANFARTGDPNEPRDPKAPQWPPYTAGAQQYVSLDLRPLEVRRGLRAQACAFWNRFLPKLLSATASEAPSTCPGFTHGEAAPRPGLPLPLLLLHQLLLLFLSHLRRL

Chain of plasma BChE (P06276 29-602): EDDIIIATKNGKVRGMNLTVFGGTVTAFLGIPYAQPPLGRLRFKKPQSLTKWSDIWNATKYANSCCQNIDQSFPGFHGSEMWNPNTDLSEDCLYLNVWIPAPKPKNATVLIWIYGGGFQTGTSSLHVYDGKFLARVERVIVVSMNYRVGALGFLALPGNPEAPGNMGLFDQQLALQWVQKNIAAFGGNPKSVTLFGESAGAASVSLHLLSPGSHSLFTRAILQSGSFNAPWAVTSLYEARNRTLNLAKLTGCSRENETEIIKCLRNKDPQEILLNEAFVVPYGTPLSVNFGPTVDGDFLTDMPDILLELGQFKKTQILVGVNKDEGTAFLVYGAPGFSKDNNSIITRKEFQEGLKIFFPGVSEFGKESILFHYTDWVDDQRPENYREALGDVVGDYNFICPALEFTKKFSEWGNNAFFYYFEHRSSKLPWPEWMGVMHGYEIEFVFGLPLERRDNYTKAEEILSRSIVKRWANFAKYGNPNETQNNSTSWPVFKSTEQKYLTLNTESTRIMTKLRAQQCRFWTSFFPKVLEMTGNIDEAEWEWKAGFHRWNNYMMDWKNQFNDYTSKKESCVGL

CNC(=O)Oc1ccc2c(c1)[C@]1(C)CCN(C)[C@@H]1N2C [(1) (-)-physostigmne, (-)-physostigmine]
properties at the neuromuscular AChR, in words [1]: blocking properties as well as agonist properties at the neuromuscular AChR

CNC(=O)Oc1ccc2c(c1)[C@]1(C)CCO[C@@H]1N2C [(3) (-)-physovenine, (-)-physovenine, reference compound]
IC50 [2]: 3.5 ± 1.4 nM | enzyme selectivity / preference (AChE vs BChE), in words [3]: inhibited AChE and BChE in vitro similarly at similar concentrations | IC50 ([3]; pH 8, read-out: AChE IC50): 27.1 ± 0.8 nM

Cc1ccccc1NC(=O)Oc1ccc2c(c1)[C@]1(C)CCN(C)[C@@H]1N2C [Ex. 7, (-)-2'-Methylphenylcarbamoyleseroline]
IC50 ([3]; pH 8, read-out: AChE IC50): 10.3 ± 1.6 nM

Cc1ccc(NC(=O)Oc2ccc3c(c2)[C@]2(C)CCN(C)[C@@H]2N3C)c(C)c1 [Ex. 8, (-)-2'-4'-dimethylphenylcarbamoyleseroline]
IC50 ([2]; pH 8, read-out: BChE IC50): 1820 ± 558 nM | IC50 [3]: 13.6 ± 1 nM

Cc1ccc(NC(=O)Oc2ccc3c(c2)[C@]2(C)CCN(C)[C@@H]2N3C)cc1 [Ex. 10, (-)-4'-methylphenylarbamoyleseroline]
IC50 ([2]; pH 8, read-out: BChE IC50): 251 ± 8.6 nM | IC50 ([3]; pH 8, read-out: AChE IC50): 139 ± 3.7 nM

CCc1cccc(CC)c1NC(=O)Oc1ccc2c(c1)[C@]1(C)CCN(C)[C@@H]1N2C [Ex. 11, (-)-2',6-diethylphenylcarbamoylescroline]
IC50 [2]: 1070 ± 48 nM | IC50 ([3]; pH 8, read-out: AChE IC50): 1490 ± 49.8 nM

CCc1ccccc1NC(=O)Oc1ccc2c(c1)[C@]1(C)CCN(C)[C@@H]1N2C [Ex. 12, (-)-2'-ethylphenylcarbamoyleseroline]
IC50 ([2]; pH 8, read-out: BChE IC50): 2920 ± 537 nM | IC50 [3]: 9.7 ± 0.1 nM

CN1CC[C@@]2(C)c3cc(OC(=O)Nc4ccccc4)ccc3N(C)[C@@H]12 [Ex. 14, (-)-phenylcarbamoyleserolne]
lower concentration for inhibition of AChE than of BChE ([3]; human): 50 times

Cc1cc(C)c(NC(=O)Oc2ccc3c(c2)[C@]2(C)CCN(C)[C@@H]2N3C)c(C)c1 [Ex. 15, (-)-(-)-2',4',6'-trimethylphenylcarbamoyleseroline]
IC50 ([2]; pH 8, read-out: BChE IC50): 3290 ± 885 nM | IC50 ([3]; pH 8, read-out: AChE IC50): 1290 ± 73.8 nM

CN1CC[C@@]2(C)c3cc(OC(=O)Nc4ccccc4Cl)ccc3N(C)[C@@H]12 [Ex. 17, (-)-2'-chlorophenylcarbamoyleseroline]
IC50 [2]: 1610 ± 86.4 nM | IC50 [3]: 496 ± 28.2 nM

CN1CC[C@@]2(C)c3cc(OC(=O)Nc4c(Cl)cccc4Cl)ccc3N(C)[C@@H]12 [Ex. 18, (-)-2',6'-dichlorophenylcarbamoylseroline]
IC50 [2]: 425 ± 86.4 nM | IC50 [3]: 66.6 ± 1.8 nM

CN1c2ccc(OC(=O)Nc3ccccc3)cc2[C@]2(C)CCO[C@H]12 [Ex. 22, phenylcarbamate of (-)-physovenol]
IC50 [2]: 700 ± 37 nM | enzyme selectivity / preference (AChE vs BChE), in words [3]: high preference for Ache | IC50 ([3]; AChE IC50): 11.2 ± 2.1 nM | IC50 ([3]; IC50 for AChE): 11 nM

Cc1ccccc1NC(=O)Oc1ccc2c(c1)[C@]1(C)CCO[C@@H]1N2C [Ex. 23, (-)-5-O-(2'-Methylphenylcarbamoyl)physovenol]
IC50 ([2]; pH 8, read-out: BChE IC50): 1560 ± 120 nM | IC50 ([3]; pH 8, read-out: AChE IC50): 12.9 ± 0.8 nM

CC(C)c1ccc(NC(=O)Oc2ccc3c(c2)[C@]2(C)CCO[C@@H]2N3C)cc1 [compound 24]
IC50 ([2]; read-out: IC50 for BChE (printed once as RChE)): 16.5 nM | enzyme selectivity / preference (AChE vs BChE), in words [3]: reverse enzyme specificity | IC50 ([3]; read-out: IC50 for AChE): 3800 nM
